# Measured values: patent publication US8192962B2, “Processes for detecting toxic substances” (Daikin Industries, Ltd., priority 2001, dated 2012)
# Tested on: Detoxification protein genes
# Test: DNA chip mRNA expression in yeast, detoxification protein genes (Table 8)
# Assay type: cell-based, Saccharomyces cerevisiae S288C
# Experimental: Yeast (Saccharomyces cerevisiae S288C (α SUC2mal mel gap2 CUP1)) were incubated at 25° C. on YPD medium (yeast extract 1%, polypepton 2%, glucose 2%). One of toxic chemical substances was added to the cells at logarithmic growth phase, and the cells were further incubated for two hours. Cells were cultured without any chemical substance in the same condition, and were used as control. Concentrations of the chemical substances were defined to inhibit the growth of the yeast but not lead to death.
# After completion of the incubation, the culture was centrifuged to collect the cells. To the cells, sodium acetate buffer (50 mM sodium acetate, 10 mM EDTA, 1% SDS) was added, and the mixture was shaken at 65° C. for five minutes, followed by returning to room temperature, and obtaining the supernatant, of which the procedures were repeated two times. To the supernatant, ½ amount of a solution of phenol/chloroform was added, and the mixture was centrifuged to give a supernatant, which was added with an equal amount of chloroform, and the mixture was centrifuged to give a supernatant. To the supernatant, an equal amount of isopropanol containing 0.3 M sodium acetate was added, and the mixture was allowed to stand at room temperature for 30 minutes, after which the mixture was centrifuged to give a sediment of the whole RNAs. Seventy % ethanol was added to the sediment, and the mixture was again centrifuged to give a sediment, which was then dried and dissolved in water. mRNA was isolated from the whole RNAs as followings. In view of the fact that a poly A chain is attached to the 3′ terminus of mRNA, a polynucleotide having a poly T structure which was immobilized on the surface of latex beads was used to trap the mRNA, and then the mRNA was washed and eluted with spine column (Oligotex-dT30<Super>mRNA Purification Kit, Takara). Reverse transcription of the mRNA was conducted with a reverse transcriptase (Super Script II Reverse Transcriptase; catalogue No. 18064-014, GibcoBRL) using fluorescence-labeled nucleotides to give cDNAs that were introduced with Cy3-dUTP or Cy5-dUTP during the reverse transcription.
# The labeled cDNAs were dissolved in TE buffer (10mM Tris-HCl/1 mM EDTA, pH8.0), and the solution was dropped on the DNA chip containing the whole genes of yeast (DNA Chip Research Inc. Japan) so that the cDNAs were hybridized on the DNA chip at 65° C. for over 12 hours. The fluoresces intensity of the DNA chip was read with a scanner, and the ratio relative to the fluorescence intensity resulting from the absence of chemical substance was estimated as the following, which is shown in Tables 1 to 9: […]
compound,measurement,setting,value
"C=CC=O [(14), acrolein]",The level of expressed mRNA in the presence of chemical substance/The level of expressed mRNA in the absence of chemical substance,yeast gene YBL064C,5.0
same,The level of expressed mRNA in the presence of chemical substance/The level of expressed mRNA in the absence of chemical substance,yeast gene YBR008C,4.1
same,The level of expressed mRNA in the presence of chemical substance/The level of expressed mRNA in the absence of chemical substance,yeast gene YBR145W,2.2
same,The level of expressed mRNA in the presence of chemical substance/The level of expressed mRNA in the absence of chemical substance,yeast gene YBR244W,3.7
same,The level of expressed mRNA in the presence of chemical substance/The level of expressed mRNA in the absence of chemical substance,yeast gene YBR293W,1.4
same,The level of expressed mRNA in the presence of chemical substance/The level of expressed mRNA in the absence of chemical substance,yeast gene YCL035C,2.5
same,The level of expressed mRNA in the presence of chemical substance/The level of expressed mRNA in the absence of chemical substance,yeast gene YCL069W,1.3
same,The level of expressed mRNA in the presence of chemical substance/The level of expressed mRNA in the absence of chemical substance,yeast gene YCR083W,2.4
same,The level of expressed mRNA in the presence of chemical substance/The level of expressed mRNA in the absence of chemical substance,yeast gene YDL100C,1.4
same,The level of expressed mRNA in the presence of chemical substance/The level of expressed mRNA in the absence of chemical substance,yeast gene YDL168W,1.6
same,The level of expressed mRNA in the presence of chemical substance/The level of expressed mRNA in the absence of chemical substance,yeast gene YDR256C,1.6
same,The level of expressed mRNA in the presence of chemical substance/The level of expressed mRNA in the absence of chemical substance,yeast gene YDR453C,3.8
same,The level of expressed mRNA in the presence of chemical substance/The level of expressed mRNA in the absence of chemical substance,yeast gene YDR513W,2.0
same,The level of expressed mRNA in the presence of chemical substance/The level of expressed mRNA in the absence of chemical substance,yeast gene YDR538W,0.9
same,The level of expressed mRNA in the presence of chemical substance/The level of expressed mRNA in the absence of chemical substance,yeast gene YEL027W,1.4
same,The level of expressed mRNA in the presence of chemical substance/The level of expressed mRNA in the absence of chemical substance,yeast gene YEL065W,0.4
same,The level of expressed mRNA in the presence of chemical substance/The level of expressed mRNA in the absence of chemical substance,yeast gene YER185W,1.6
same,The level of expressed mRNA in the presence of chemical substance/The level of expressed mRNA in the absence of chemical substance,yeast gene YFL050C,1.0
same,The level of expressed mRNA in the presence of chemical substance/The level of expressed mRNA in the absence of chemical substance,yeast gene YGL013C,0.8
same,The level of expressed mRNA in the presence of chemical substance/The level of expressed mRNA in the absence of chemical substance,yeast gene YGL254W,1.3
same,The level of expressed mRNA in the presence of chemical substance/The level of expressed mRNA in the absence of chemical substance,yeast gene YGR088W,1.3
same,The level of expressed mRNA in the presence of chemical substance/The level of expressed mRNA in the absence of chemical substance,yeast gene YGR138C,0.9
same,The level of expressed mRNA in the presence of chemical substance/The level of expressed mRNA in the absence of chemical substance,yeast gene YGR197C,1.5
same,The level of expressed mRNA in the presence of chemical substance/The level of expressed mRNA in the absence of chemical substance,yeast gene YGR209C,5.0
same,The level of expressed mRNA in the presence of chemical substance/The level of expressed mRNA in the absence of chemical substance,yeast gene YGR224W,0.9
same,The level of expressed mRNA in the presence of chemical substance/The level of expressed mRNA in the absence of chemical substance,yeast gene YHL040C,1.1
same,The level of expressed mRNA in the presence of chemical substance/The level of expressed mRNA in the absence of chemical substance,yeast gene YHL047C,0.5
same,The level of expressed mRNA in the presence of chemical substance/The level of expressed mRNA in the absence of chemical substance,yeast gene YHR008C,1.6
same,The level of expressed mRNA in the presence of chemical substance/The level of expressed mRNA in the absence of chemical substance,yeast gene YHR048W,1.7
same,The level of expressed mRNA in the presence of chemical substance/The level of expressed mRNA in the absence of chemical substance,yeast gene YHR053C,1.5
same,The level of expressed mRNA in the presence of chemical substance/The level of expressed mRNA in the absence of chemical substance,yeast gene YHR055C,1.5
same,The level of expressed mRNA in the presence of chemical substance/The level of expressed mRNA in the absence of chemical substance,yeast gene YIR002C,1.1
same,The level of expressed mRNA in the presence of chemical substance/The level of expressed mRNA in the absence of chemical substance,yeast gene YIR038C,2.5
same,The level of expressed mRNA in the presence of chemical substance/The level of expressed mRNA in the absence of chemical substance,yeast gene YJL101C,1.0
same,The level of expressed mRNA in the presence of chemical substance/The level of expressed mRNA in the absence of chemical substance,yeast gene YJR104C,2.0
same,The level of expressed mRNA in the presence of chemical substance/The level of expressed mRNA in the absence of chemical substance,yeast gene YKL026C,1.8
same,The level of expressed mRNA in the presence of chemical substance/The level of expressed mRNA in the absence of chemical substance,yeast gene YKL064W,1.1
same,The level of expressed mRNA in the presence of chemical substance/The level of expressed mRNA in the absence of chemical substance,yeast gene YKR066C,1.5
same,The level of expressed mRNA in the presence of chemical substance/The level of expressed mRNA in the absence of chemical substance,yeast gene YKR105C,1.2
same,The level of expressed mRNA in the presence of chemical substance/The level of expressed mRNA in the absence of chemical substance,yeast gene YKR106W,1.7
same,The level of expressed mRNA in the presence of chemical substance/The level of expressed mRNA in the absence of chemical substance,yeast gene YLL028W,0.7
same,The level of expressed mRNA in the presence of chemical substance/The level of expressed mRNA in the absence of chemical substance,yeast gene YLL057C,1.1
same,The level of expressed mRNA in the presence of chemical substance/The level of expressed mRNA in the absence of chemical substance,yeast gene YLL060C,10.6
same,The level of expressed mRNA in the presence of chemical substance/The level of expressed mRNA in the absence of chemical substance,yeast gene YLR043C,2.1
same,The level of expressed mRNA in the presence of chemical substance/The level of expressed mRNA in the absence of chemical substance,yeast gene YLR046C,1.3
same,The level of expressed mRNA in the presence of chemical substance/The level of expressed mRNA in the absence of chemical substance,yeast gene YML028W,2.0
same,The level of expressed mRNA in the presence of chemical substance/The level of expressed mRNA in the absence of chemical substance,yeast gene YML116W,2.0
same,The level of expressed mRNA in the presence of chemical substance/The level of expressed mRNA in the absence of chemical substance,yeast gene YMR015C,0.8
same,The level of expressed mRNA in the presence of chemical substance/The level of expressed mRNA in the absence of chemical substance,yeast gene YMR038C,1.1
same,The level of expressed mRNA in the presence of chemical substance/The level of expressed mRNA in the absence of chemical substance,yeast gene YNL239W,1.3
same,The level of expressed mRNA in the presence of chemical substance/The level of expressed mRNA in the absence of chemical substance,yeast gene YNL241C,1.1
same,The level of expressed mRNA in the presence of chemical substance/The level of expressed mRNA in the absence of chemical substance,yeast gene YNL259C,1.4
same,The level of expressed mRNA in the presence of chemical substance/The level of expressed mRNA in the absence of chemical substance,yeast gene YOL158C,1.0
same,The level of expressed mRNA in the presence of chemical substance/The level of expressed mRNA in the absence of chemical substance,yeast gene YOR031W,1.5
same,The level of expressed mRNA in the presence of chemical substance/The level of expressed mRNA in the absence of chemical substance,yeast gene YOR153W,0.3
same,The level of expressed mRNA in the presence of chemical substance/The level of expressed mRNA in the absence of chemical substance,yeast gene YOR247W,0.4
same,The level of expressed mRNA in the presence of chemical substance/The level of expressed mRNA in the absence of chemical substance,yeast gene YOR251C,1.1
same,The level of expressed mRNA in the presence of chemical substance/The level of expressed mRNA in the absence of chemical substance,yeast gene YOR273C,0.5
same,The level of expressed mRNA in the presence of chemical substance/The level of expressed mRNA in the absence of chemical substance,yeast gene YPL163C,0.6
same,The level of expressed mRNA in the presence of chemical substance/The level of expressed mRNA in the absence of chemical substance,yeast gene YPR200C,2.0
